Measured values: patent US20250230147A1, “LACTAMS AS CBL-B INHIBITORS” (Genentech, Inc., priority 2021, published 2025)

Tests used:
c-Cbl = c-Cbl (Homo sapiens (Human), UniProt P22681); assay: C-Cbl LCK Ub TR-FRET assay (c-cbl Lck HTRF); type: biochemical; details: for (fold-selectivity): C-cbl Lck HTRF IC50 relative to Cbl-b Lck HTRF IC50
Method in brief: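 Signal is read once the detection mix has stood 20 min at ambient temperature. Curves are anchored by DMSO as maximum and by omission of LCK as minimum.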

Cbl-b = Cbl-b (Homo sapiens (Human), UniProt Q13191); assay: Cbl-b LCK Ub TR-FRET assay (Cbl-b Lck HTRF); type: biochemical
Method in brief: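 Biotin-Cbl-b preincubated with compound (10-point 3-fold series) 60 min, then His-LCK with 1 mM ATP (2× mixture) added for 90 min at room temperature. Ubiquitination detected by TR-FRET using HA-ubiquitin/UBE2D2 adduct, anti-HA-D2 and streptavidin-Eu; IC50 normalised to no-LCK and DMSO controls.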

Sequence of Cbl-b (Q13191 40-426): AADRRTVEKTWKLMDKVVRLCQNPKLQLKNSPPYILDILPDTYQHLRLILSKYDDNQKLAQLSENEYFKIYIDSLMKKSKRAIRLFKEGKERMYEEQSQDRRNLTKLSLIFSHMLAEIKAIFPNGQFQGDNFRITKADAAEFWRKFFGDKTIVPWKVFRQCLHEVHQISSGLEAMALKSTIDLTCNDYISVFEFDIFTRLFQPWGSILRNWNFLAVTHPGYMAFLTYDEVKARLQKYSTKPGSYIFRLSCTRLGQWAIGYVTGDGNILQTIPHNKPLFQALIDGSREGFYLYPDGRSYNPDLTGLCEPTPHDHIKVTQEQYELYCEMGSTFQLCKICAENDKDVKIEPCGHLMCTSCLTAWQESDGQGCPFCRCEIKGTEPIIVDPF
Sequence of c-Cbl (P22681 47-435): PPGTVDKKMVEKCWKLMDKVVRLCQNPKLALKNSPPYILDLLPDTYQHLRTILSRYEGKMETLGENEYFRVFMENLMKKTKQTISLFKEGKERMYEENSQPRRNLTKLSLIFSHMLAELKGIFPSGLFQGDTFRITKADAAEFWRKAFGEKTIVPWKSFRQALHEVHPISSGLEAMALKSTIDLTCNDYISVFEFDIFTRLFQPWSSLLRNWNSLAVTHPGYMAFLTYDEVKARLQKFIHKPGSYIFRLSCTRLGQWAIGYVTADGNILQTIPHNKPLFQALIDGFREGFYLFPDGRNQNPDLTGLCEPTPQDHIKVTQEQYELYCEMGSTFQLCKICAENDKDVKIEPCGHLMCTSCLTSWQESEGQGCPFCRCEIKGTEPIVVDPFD

| SMILES | IC50 (c-Cbl) | (fold-selectivity) (c-Cbl) | IC50 (Cbl-b) |
| --- | --- | --- | --- |
| Cn1cnnc1CC1(c2cc(OC3CCCC3)cc(N3Cc4c(cc(CNC5(C)CCC5)cc4C(F)(F)F)C3=O)c2)COC1 [Compound 479, 2-(3-(cyclopentyloxy)-5-(3-((4-methyl-4H-1,2,4-triazol-3-yl)methyl)oxetan-3-yl)phenyl)-6-(((1-methylcyclobutyl)amino)methyl)-4-(trifluoromethyl)isoindolin-1-one] | 290 nM | (1.6x) | 180 nM |
| Cn1cnnc1CC1(c2cc(NC3CCCC3)cc(N3Cc4c(cc(CNC5(C)CCC5)cc4C(F)(F)F)C3=O)c2)COC1 [Compound 480, 2-(3-(cyclopentylamino)-5-(3-((4-methyl-4H-1,2,4-triazol-3-yl)methyl)oxetan-3-yl)phenyl)-6-(((1-methylcyclobutyl)amino)methyl)-4-(trifluoromethyl)isoindolin-1-one] | 180 nM | (2.8x) | 59 nM |
| CC[C@H](C)Nc1cc(C2(Cc3nncn3C)COC2)cc(N2Cc3c(cccc3C(F)(F)F)C2=O)n1 [Compound 481, (S)-2-(6-(sec-butylamino)-4-(3-((4-methyl-4H-1,2,4-triazol-3-yl)methyl)oxetan-3-yl)pyridin-2-yl)-4-(trifluoromethyl)isoindolin-1-one] | 420 nM | (3.7x) | 110 nM |
| CC[C@@H](C)Nc1cc(C2(Cc3nncn3C)COC2)cc(N2Cc3c(cccc3C(F)(F)F)C2=O)n1 [Compound 482, (R)-2-(6-(sec-butylamino)-4-(3-((4-methyl-4H-1,2,4-triazol-3-yl)methyl)oxetan-3-yl)pyridin-2-yl)-4-(trifluoromethyl)isoindolin-1-one] | 410 nM | (1.9x) | 210 nM |
| Cn1cnnc1CC1(c2cc(NC3CCC(F)(F)C3)nc(N3Cc4c(cccc4C(F)(F)F)C3=O)c2)COC1 (stereo not drawn) [Compound 483, 2-(6-((3,3-difluorocyclopentyl)amino)-4-(3-((4-methyl-4H-1,2,4-triazol-3-yl)methyl)oxetan-3-yl)pyridin-2-yl)-4-(trifluoromethyl)isoindolin-1-one] | 20000 nM | (12x) | 1800 nM |
| Cn1cnnc1CC1(c2cc(NC3CC=CC3)nc(N3Cc4c(cccc4C(F)(F)F)C3=O)c2)COC1 [Compound 484, 2-(6-(cyclopent-3-en-1-ylamino)-4-(3-((4-methyl-4H-1,2,4-triazol-3-yl)methyl)oxetan-3-yl)pyridin-2-yl)-4-(trifluoromethyl)isoindolin-1-one] | 1200 nM | (4.8x) | 230 nM |
| CC(C)[C@H]1CN(C)CCN1Cc1cc2c(c(C(F)(F)F)c1)CN(c1cccc(C3([C@H](F)c4nncn4C4CC4)COC3)c1)C2=O [Compound 487, 2-(3-(3-((S)-(4-cyclopropyl-4H-1,2,4-triazol-3-yl)fluoromethyl)oxetan-3-yl)phenyl)-6-(((S)-2-isopropyl-4-methylpiperazin-1-yl)methyl)-4-(trifluoromethyl)isoindolin-1-one] | 2700 nM | (1.5x) | 1800 nM |
| Cn1cnnc1CC1(c2cc(NCCC(F)(F)F)nc(N3Cc4c(cccc4C(F)(F)F)C3=O)c2)COC1 [Compound 488, 2-(4-(3-((4-methyl-4H-1,2,4-triazol-3-yl)methyl)oxetan-3-yl)-6-((3,3,3-trifluoropropyl)amino)pyridin-2-yl)-4-(trifluoromethyl)isoindolin-1-one] | 12500 nM | (6.4x) | 1900 nM |
| Cn1cnnc1CC1(c2cc(NC3CCCC3O)nc(N3Cc4c(cccc4C(F)(F)F)C3=O)c2)COC1 (stereo not drawn) [Compound 489, 2-(6-((2-hydroxycyclopentyl)amino)-4-(3-((4-methyl-4H-1,2,4-triazol-3-yl)methyl)oxetan-3-yl)pyridin-2-yl)-4-(trifluoromethyl)isoindolin-1-one] | 19500 nM | (3.8x) | 5000 nM |
| C[C@@H]1COCCN1c1cc(C2(Cc3nncn3C)COC2)cc(N2Cc3c(cccc3C(F)(F)F)C2=O)n1 [Compound 490, (R)-2-(4-(3-((4-methyl-4H-1,2,4-triazol-3-yl)methyl)oxetan-3-yl)-6-(3-methylmorpholino)pyridin-2-yl)-4-(trifluoromethyl)isoindolin-1-one] | 3500 nM | (1.0x) | 3300 nM |
| Cn1cnnc1CC1(c2cc(NCC(N)=O)nc(N3Cc4c(cccc4C(F)(F)F)C3=O)c2)COC1 [Compound 491, 2-((4-(3-((4-methyl-4H-1,2,4-triazol-3-yl)methyl)oxetan-3-yl)-6-(1-oxo-4-(trifluoromethyl)isoindolin-2-yl)pyridin-2-yl)amino)acetamide] | 20000 nM | (2.3x) | 8600 nM |

Now those with a lower IC50 (c-Cbl), led by results:

| IC50 (c-Cbl) | (fold-selectivity) (c-Cbl) | IC50 (Cbl-b) | SMILES |
| --- | --- | --- | --- |
| 13 nM | (0.83x) | 15 nM | Cn1cnnc1CC1(c2cc(C3CC3)cc(N3Cc4c(cc(CNC5(C)CCC5)cc4C(F)(F)F)C3=O)c2)COC1 [Compound 472, 2-(3-cyclopropyl-5-(3-((4-methyl-4H-1,2,4-triazol-3-yl)methyl)oxetan-3-yl)phenyl)-6-(((1-methylcyclobutyl)amino)methyl)-4-(trifluoromethyl)isoindolin-1-one] |
| 17 nM | (1.2x) | 15 nM | CCOc1cc(N2Cc3c(cc(CNC4(C)CCC4)cc3C(F)(F)F)C2=O)cc(C2(Cc3nncn3C)COC2)c1 [Compound 473, 2-(3-ethoxy-5-(3-((4-methyl-4H-1,2,4-triazol-3-yl)methyl)oxetan-3-yl)phenyl)-6-(((1-methylcyclobutyl)amino)methyl)-4-(trifluoromethyl)isoindolin-1-one] |
| 8.6 nM | (0.79x) | 11 nM | CCNc1cc(N2Cc3c(cc(CNC4(C)CCC4)cc3C(F)(F)F)C2=O)cc(C2(Cc3nncn3C)COC2)c1 [Compound 474, 2-(3-(ethylamino)-5-(3-((4-methyl-4H-1,2,4-triazol-3-yl)methyl)oxetan-3-yl)phenyl)-6-(((1-methylcyclobutyl)amino)methyl)-4-(trifluoromethyl)isoindolin-1-one] |
| 69 nM | (1.3x) | 54 nM | CC[C@H]1CC[C@@H](c2cc3c(c(C(F)(F)F)c2)CN(c2cccc(C4(Cc5nncn5C)CC(F)(F)C4)c2)C3=O)N1 [Compound 475, 2-(3-(3,3-difluoro-1-((4-methyl-4H-1,2,4-triazol-3-yl)methyl)cyclobutyl)phenyl)-6-((2S,5S)-5-ethylpyrrolidin-2-yl)-4-(trifluoromethyl)isoindolin-1-one] |
| 39 nM | (0.83x) | 47 nM | CC[C@@H]1CC[C@H](c2cc3c(c(C(F)(F)F)c2)CN(c2cccc(C4(Cc5nncn5C)CC(F)(F)C4)c2)C3=O)N1 [Compound 476, 2-(3-(3,3-difluoro-1-((4-methyl-4H-1,2,4-triazol-3-yl)methyl)cyclobutyl)phenyl)-6-((2R,5R)-5-ethylpyrrolidin-2-yl)-4-(trifluoromethyl)isoindolin-1-one] |
| 110 nM | (3.4x) | 36 nM | Cn1cnnc1CC1(c2cc(NC3CCCC3)cc(N3Cc4c(cc(CNC5(C)CCC5)cc4C(F)(F)F)C3=O)c2)CC(F)(F)C1 [Compound 477, 2-(3-(cyclopentylamino)-5-(3,3-difluoro-1-((4-methyl-4H-1,2,4-triazol-3-yl)methyl)cyclobutyl)phenyl)-6-(((1-methylcyclobutyl)amino)methyl)-4-(trifluoromethyl)isoindolin-1-one] |
| 160 nM | (2.0x) | 82 nM | Cn1cnnc1CC1(c2cc(OC3CCCC3)cc(N3Cc4c(cc(CNC5(C)CCC5)cc4C(F)(F)F)C3=O)c2)CC(F)(F)C1 [Compound 478, 2-(3-(cyclopentyloxy)-5-(3,3-difluoro-1-((4-methyl-4H-1,2,4-triazol-3-yl)methyl)cyclobutyl)phenyl)-6-(((1-methylcyclobutyl)amino)methyl)-4-(trifluoromethyl)isoindolin-1-one] |
| 29 nM | (0.92x) | 31 nM | CCn1cnnc1C(F)C1(c2cccc(N3Cc4c(cc(CN5CCN(C)C[C@@H]5C(C)C)cc4C(F)(F)F)C3=O)c2)CC(F)(F)C1 (stereo partly drawn) [Compound 485, 2-(3-(1-((4-ethyl-4H-1,2,4-triazol-3-yl)fluoromethyl)-3,3-difluorocyclobutyl)phenyl)-6-(((S)-2-isopropyl-4-methylpiperazin-1-yl)methyl)-4-(trifluoromethyl) isoindolin-1-one] |
| 93 nM | (1.2x) | 77 nM | CC(C)[C@H]1CN(C)CCN1Cc1cc2c(c(C(F)(F)F)c1)CN(c1cccc(C3([C@@H](F)c4nncn4C4CC4)COC3)c1)C2=O [Compound 486, 2-(3-(3-((R)-(4-cyclopropyl-4H-1,2,4-triazol-3-yl)fluoromethyl)oxetan-3-yl)phenyl)-6-(((S)-2-isopropyl-4-methylpiperazin-1-yl)methyl)-4-(trifluoromethyl)isoindolin-1-one] |
| 60 nM | (1.0x) | 57 nM | CC1(NCc2cc3c(c(C(F)(F)F)c2)CN(c2cccc(C4(Cc5nncn5C5CC5)CC(F)(F)C4)c2)C3=O)CCC1 [Compound 492, 2-(3-(1-((4-cyclopropyl-4H-1,2,4-triazol-3-yl)methyl)-3,3-difluorocyclobutyl)phenyl)-6-(((1-methylcyclobutyl)amino)methyl)-4-(trifluoromethyl)isoindolin-1-one] |
